A short description of data set [1]: In vitro simulated gastrointestinal digestion (SGD, INFOGEST 2.0): concentration and bioaccessibility by UHPLC-DAD-MSn. The settings on record: for Bioaccessibility (%), initial solution (IS): reference. The procedure:
Preliminary solubility tests in different solvents, namely water, sodium phosphate buffer (26.8 mM, pH 6.1), ethanol, and also a mixture of ethanol with both water and sodium phosphate buffer, were carried out for each PC (data not shown), to prevent erroneous data arising from compounds precipitation. Ethanol percentages used in these preliminary solubility tests were 10, 15, and 20% (v/v).
Each PC solubilized in ethanol:water (15% v/v) was then submitted to an in vitro SGD (INFOGEST 2.0), according to a standardized protocol (Fig. 2). In order to determine whether the interaction between the compounds and enzymes led to an underestimation of their content, each PC solution was submitted to the same digestion procedure, replacing the enzyme solutions with water, which were designed as controls, henceforth this will be the term used. Each sample and control were submitted to three independent in vitro digestion simulations, and after each digestion phase, a sample/control was collected and further analyzed and quantified by UHPLC-DAD-MSn.
(§1) Mouth digestion of each PC solution (1 mL) was diluted in 0.8 mL of simulated salivary fluid (SSF) and α-amylase (75 U mL-1). Then, the mixture was incubated for 2 min at 37 °C under agitation (200 rpm). In order to start gastric digestion, pH was adjusted to 3.0 using 1 M aqueous HCl and then, a pepsin solution (2000 U mL-1) and simulated gastric fluid (SGF) were added. Subsequently, the mixture was incubated for 2h, at 37 °C and 130 rpm orbital agitation for the stomach digestion. Finally, the small intestine digestion simulation was performed after pH adjustment to 7.0 using 1 M aqueous […] and the addition of pancreatin (100 U mL-1), bile salts solution (10 mM) and simulated intestinal fluid (SIF), during 2 h, at 37 °C with 45 rpm orbital agitation. Natural small intestine absorption was also simulated, by placing the remaining sample in a dialysis membrane, and immersed in distilled water overnight at room temperature.
At each sampling point, an aliquot (0.5 mL) from each of the three replicates was collected. The enzymatic activity was stopped immediately by adding pure methanol to each aliquot (1:1, v/v) to promote enzyme precipitation and subsequently centrifuged at 10 000 g and 4 °C for 5 min. The supernatants were filtered with a 0.2 μm nylon filter. To determine the concentration of each sample or control, it was considered the following dilution factor – 1:2, 1:4 and 1:8 for oral, gastric and intestinal digestion phase, respectively.
The bioaccessibility percentage (B%) of each PC was calculated using equation (1):(1) B(%)=[DS]/[IS]×100 where IS is the initial concentration of PCs in ethanol:water (15% v/v) solutions, DS is the concentration of each collected sample or control (without enzymes).
(§2) The values of B% and IA% were the average of the three replicates performed, with the calculated standard deviation.
PCs were analyzed in a UHPLC system equipped with a variable loop Accela autosampler (set at 16 °C), an Accela 600 LC pump, and an Accela 80 Hz photo diode array detector (DAD) (Thermo Fisher Scientific, San Jose, CA, USA). Each sample was prepared in methanol:water (1:1, v/v) and filtered through a 0.2 μm nylon syringe filter. […] The mobile phase was composed of acetonitrile (A) and water:acetonitrile (99:1, v/v) (B), both with 0.1 % of formic acid. The gradient elution was performed as follows: 0–1min: 99% B; 1–17 min: 99-73% B, 17–20 min: 73-0% B, 20–25 min: 0–99% B, followed by re-equilibration of the column at 99% B for 4 min.

Data set [2] can be described thus: Simulation of intestinal absorption using a dialysis membrane (3 kDa) after in vitro SGD.
Description: HPLC-grade methanol, water, and acetonitrile were supplied by Fisher Scientific Chemicals. The enzymes α-amylase (A1031), pepsin from porcine stomach mucosa (P7012), pancreatin from porcine pancreas (P7545), and bile salts (B863) were purchased from Sigma-Aldrich (Taufkirchen, Germany). The rabbit gastric extract (RGE15) with gastric lipase activity was purchased from Lipolytech (Marseille, France). The ethanol was purchased from Merck (Algés, Portugal). A dialysis membrane with a molecular pore size of 3 kDa was purchased from Spectra/Pro (Spectrum Lab, Breda, Netherlands).
as §1
Furthermore, to determine the intestinal absorption, the aliquots collected inside the dialysis membrane were analyzed. The concentration of these samples (from inside of the membrane) corresponds to the amount of each PC that has not passed through to the outside of the membrane.
as §2

Where [3] appears, read: controls (without enzymes), gastric phase.
Setting [4] is: controls (without enzymes), initial solution.
[5] abbreviates: controls (without enzymes), intestinal phase.
Where [6] appears, read: controls (without enzymes), oral phase.
[7] abbreviates: samples with enzymes, after gastric digestion pH 3.0.
Where [8] appears, read: samples with enzymes, after intestinal digestion pH 7.0.
Where [9] appears, read: samples with enzymes, after oral digestion.
Setting [10] is: samples with enzymes, gastric phase.
The mark [11] stands for this setting: samples with enzymes, intestinal phase.
Where [12] appears, read: samples with enzymes, oral phase.
[13] abbreviates: samples, initial ethanol:water (15% v/v) solution.

We go through 5 compounds from paper PMC11016601, “Exploring the bioaccessibility and intestinal absorption of major classes of pure phenolic compounds using in vitro simulated gastrointestinal digestion” (Heliyon, 2024).

Several values for one entry are separate records, joined by “and”; a condition that tells them apart may be missing. Equal entries are not always repeated. Where two headings read alike, the source gives them in different places. Marks after values point to notes of the source that are not given here.

In the case of `O=C1C[C@@H](c2ccc(O)cc2)Oc2cc(O)cc(O)c21` [NAR, (+)-naringenin], the “Bioaccessibility (%), oral phase (O)” value in data set [1] (2 min) was 97.26 ± 5.50%; in data set [1] (setting [6]), 102.62% and 102.62 ± 1.12%; in data set [1] (setting [12]) it was 97.26%. In addition, the “Bioaccessibility (%), gastric phase (G)” value in data set [1] (setting [3]) is 84.37% and 84.37 ± 4.60%; in data set [1] (setting [10]), 79.09% and 79.09 ± 6.97%. Besides, the entries for the “Concentration, gastric phase (G)” value in data set [1] (setting [3]) and in data set [1] (setting [7]) were 301.86 ± 16.45 µg/mL and 282.96 ± 24.94 µg/mL, respectively. The “Concentration, initial solution (IS)” value in data set [1] (setting [4]) and in data set [1] (setting [13]) was 357.76 µg/mL each time. Also, the “Bioaccessibility (%), initial solution (IS)” value (“Bioaccessibility (%) … (IS)” for short) is reported as 100% in data set [1] (setting [4]) and 100% in data set [1] (samples, initial solution). Moreover, the “Bioaccessibility (%), intestinal phase (I)” value (shortened to “Bioaccessibility (%) … (I)”) in data set [1] (setting [5]) was 68.99% and 68.99 ± 33.64%; in data set [1] (setting [11]), 65.15% and 65.15 ± 28.62%. The results for the “Concentration, intestinal phase (I)” value in data set [1] (setting [5]) and in data set [1] (setting [8]) were 246.82 ± 120.35 µg/mL and 233.10 ± 102.39 µg/mL, respectively. The “Concentration, oral phase (O)” value in data set [1] (setting [6]) is 367.13 ± 4.00 µg/mL; in data set [1] (setting [9]), 347.95 ± 19.67 µg/mL. Moreover, the “Concentration, dialysis phase (D)” value in data set [2] is 3.29 ± 0.96 µg/mL; in data set [2] (pig) it was 17.50 ± 3.80 µg/mL.

On to `Oc1cc(O)cc(O)c1` [PG, phloroglucinol], for which the “Bioaccessibility (%), oral phase (O)” value is 92.78 ± 5.91^ b % in data set [1] (2 min); 94.08% and 94.08 ± 1.84 ^a % in data set [1] (setting [6]); 92.78% in data set [1] (setting [12]). Further, the “Bioaccessibility (%), gastric phase (G)” value in data set [1] (setting [3]) was 91.32% and 91.32 ± 3.79 ^a %; in data set [1] (setting [10]) it was 94.09% and 94.09 ± 3.85^ b %. Further, the “Concentration, gastric phase (G)” value is 4765.51 ± 197.78 µg/mL in data set [1] (setting [3]) and 4910.12 ± 200.81 µg/mL in data set [1] (setting [7]). Also, the “Concentration, initial solution (IS)” value in data set [1] (setting [4]) and in data set [1] (setting [13]) was 5218 µg/mL throughout. The “Bioaccessibility (%) … (IS)” value was 100 ^a % in data set [1] (setting [4]) and 100^ b % in data set [1] (samples, initial solution). For the same compound, the “Bioaccessibility (%) … (I)” value in data set [1] (setting [5]) is 94.91% and 94.91 ± 5.32 ^a %; in data set [1] (setting [11]), 159.82% and 159.82 ± 19.05^ a %. Also, the “Concentration, intestinal phase (I)” value in data set [1] (setting [5]) was 4952.79 ± 277.44 µg/mL; in data set [1] (setting [8]), 8339.90 ± 994.21 µg/mL. Also, the entries for the “Concentration, oral phase (O)” value in data set [1] (setting [6]) and in data set [1] (setting [9]) were 4909.58 ± 96.26 µg/mL and 4841.66 ± 308.60 µg/mL, respectively. Also, the “Concentration, dialysis phase (D)” value was 225.29 ± 125.33 µg/mL in data set [2] and 555.31 ± 145.46 µg/mL in data set [2] (pig).

As for `O=c1c(-c2ccc(O)cc2)coc2cc(O)ccc12` [DAID, daidzein], the “Bioaccessibility (%), gastric phase (G)” value in data set [1] (setting [3]) was 70.95% and 70.95 ± 3.71 ^a %; in data set [1] (setting [10]), 81.78% and 81.78 ± 10.87 ^a %. The “Concentration, gastric phase (G)” value in data set [1] (setting [3]) was 12.89 ± 0.67 µg/mL; in data set [1] (setting [7]) it was 14.86 ± 1.98 µg/mL. The “Concentration, initial solution (IS)” value in data set [1] (setting [4]) and in data set [1] (setting [13]) was 18.17 µg/mL throughout. Further, the “Bioaccessibility (%) … (IS)” value in data set [1] (setting [4]) is recorded as 100^ a %; in data set [1] (samples, initial solution), 100^ a %. Also, the “Bioaccessibility (%) … (I)” value is 138.68% and 138.68 ± 9.01^ a % in data set [1] (setting [5]); 158.08% and 158.08 ± 11.20^ a % in data set [1] (setting [11]). The “Concentration, intestinal phase (I)” value in data set [1] (setting [5]) was 25.20 ± 1.64 µg/mL; in data set [1] (setting [8]), 28.72 ± 2.03 µg/mL. Besides, the “Bioaccessibility (%), oral phase (O)” value was 78.35% and 78.35 ± 24.88^ a % in data set [1] (setting [6]); 119.06% and 119.06 ± 30.41^ a % in data set [1] (setting [12]). The “Concentration, oral phase (O)” value in data set [1] (setting [6]) is 14.24 ± 4.52 µg/mL; in data set [1] (setting [9]), 21.63 ± 5.52 µg/mL. Also, the “Concentration, dialysis phase (D)” value in data set [2] is on record as “below the detection limit”.

For the compound `O=C(O[C@@H]1Cc2c(O)cc(O)cc2O[C@@H]1c1cc(O)c(O)c(O)c1)c1cc(O)c(O)c(O)c1` [EGCG, epigallocatechin-3-O-gallate], the “Bioaccessibility (%), oral phase (O)” value was 38.16 ± 12.23^ b % in data set [1] (2 min); 34.13% and 34.13 ± 1.91 ^c % in data set [1] (setting [6]); 38.16% in data set [1] (setting [12]). The “Bioaccessibility (%), gastric phase (G)” value in data set [1] (setting [3]) was 61.53% and 61.53 ± 5.39 ^b %; in data set [1] (setting [10]), 71.21% and 71.21 ± 3.16 ^a %. The “Concentration, gastric phase (G)” value in data set [1] (setting [3]) is 1272.99 ± 111.59 µg/mL; in data set [1] (setting [7]) it was 1473.22 ± 65.28 µg/mL. Also, the “Concentration, initial solution (IS)” value in data set [1] (setting [4]) and in data set [1] (setting [13]) was 2068.93 µg/mL throughout. The “Bioaccessibility (%) … (IS)” value is reported as 100^ a % in data set [1] (setting [4]) and 100^ a % in data set [1] (samples, initial solution). In addition, the “Bioaccessibility (%) … (I)” value in data set [1] (setting [5]) is 5.03% and 5.03 ± 0.81 ^d %; in data set [1] (setting [11]) it was 15.09% and 15.09 ± 2.26 ^b %. For the same compound, the “Concentration, intestinal phase (I)” value in data set [1] (setting [5]) was 104.15 ± 16.86 µg/mL; in data set [1] (setting [8]) it was 312.22 ± 46.76 µg/mL. In addition, the “Concentration, oral phase (O)” value in data set [1] (setting [6]) is 706.03 ± 39.46 µg/mL; in data set [1] (setting [9]), 789.50 ± 253.03 µg/mL. In addition, in data set [2], the “Concentration, dialysis phase (D)” value was “below the detection limit”. In data set [2], the “Intestinal absorption (IA%)” value was “very high”.

In the case of `O=c1oc2c(O)c(O)cc3c(=O)oc4c(O)c(O)cc1c4c23` [EA, ellagic acid], the “Concentration, intestinal phase (I)” value in data set [1] (setting [8]) is 5.20 ± 0.10 µg/mL. Also, the “Concentration, oral phase (O)” value in data set [1] (setting [9]) is 4.78 ± 1.75 µg/mL. Also, in data set [2], the “Concentration, dialysis phase (D)” value is “below the detection limit” and the “Intestinal absorption (IA%)” value was “very high”.
